The values below come from article PMC6540792 (Journal of medicinal chemistry, 2018).

Experiment [1] deals with BRAF^WT (Homo sapiens, UniProt P15056). The experiment can be described thus: ELISA kinase assay, phosphorylation of GST-MEK by purified BRAF kinase domain. It counts as biochemical. As to conditions: Figure 5b.
In experiment [2] the target is T1, BRAF^WT (Homo sapiens, UniProt P15056, A688R/F667E/I543A/I544S/I551K/K630S/K723G/L588N/L706S/L716E/P722S/Q562R/Q709R/S713E/Y673S). The experiment can be described thus: Limited proteolysis with trypsin. As to conditions: 200 μM inhibitor, trypsin 30 minutes.
Experiment [3] concerns the target T1, BRAF^WT. The experiment can be described thus: AUC sedimentation velocity. Particulars: Figure 4b; vemurafenib 15 μM (Figure 8).
The target in a further experiment is BRAF^V600E (Homo sapiens, UniProt P15056, A688R/F667E/I543A/I544S/I551K/K630S/K723G/L588N/L706S/L716E/P722S/Q562R/Q709R/S713E/V600E/Y673S). Nature of the experiment: AUC sedimentation velocity. As to conditions: Figure 4c; vemurafenib 15 μM (Figure 8).
The target in experiment [4] is T1, BRAF^WT. The experiment can be described thus: Differential Scanning Calorimetry. It counts as binding. As to conditions: 37 μM protein. For orientation: In DSC, transitions show as peaks or steps in heat flow.
For another experiment, the target named is BRAF^R506A (Homo sapiens, UniProt P15056, A688R/F667E/I543A/I544S/I551K/K630S/K723G/L588N/L706S/L716E/P722S/Q562R/Q709R/R506A/S713E/Y673S). Nature of the experiment: AUC sedimentation velocity. As to conditions: TAK632 at 15-25 μM, Figure 8a.
Another experiment addresses BRAF^W450A (Homo sapiens, UniProt P15056, A688R/F667E/I543A/I544S/I551K/K630S/K723G/L588N/L706S/L716E/P722S/Q562R/Q709R/S713E/W450A/Y673S). Nature of the experiment: AUC sedimentation velocity. As to conditions: TAK632 at 15-25 μM, Figure 8a.
Experiment [5] deals with T2, BRAF^R509H/R506A/W450A (Homo sapiens, UniProt P15056, A688R/F667E/I543A/I544S/I551K/K630S/K723G/L588N/L706S/L716E/P722S/Q562R/Q709R/R506A/R509H/S713E/W450A/Y673S). Nature of the experiment: AUC sedimentation velocity. As to conditions: 25 μM, Figure 8b.
In experiment [6] the target is T2, BRAF^R509H/R506A/W450A. The experiment can be described thus: AUC sedimentation equilibrium. As to conditions: in the presence of TAK632.
In experiment [7] the test system is wild-type or mutant BRAF and CRAF. As to conditions: cited from earlier work.

On to `N#Cc1c(Oc2ccc(F)c(NC(=O)Cc3cccc(C(F)(F)F)c3)c2)ccc2nc(NC(=O)COCCOCCOCC(=O)Nc3nccs3)sc12` [TAK-L-C], for which the “fold reduced potency relative to TAK632” value on BRAF^WT [1] is ~4 fold. Besides, the “trypsin digestion pattern of BRAF^WT” value on BRAF^WT [2] was “species A becomes a minor band, while species B and C become major bands”.

Consider `CCCS(=O)(=O)Nc1ccc(F)c(C(=O)c2c[nH]c3ncc(-c4ccc(Cl)cc4)cc23)c1F` [vemurafenib], for which the “oligomeric state of BRAF^WT on adding inhibitor” value at BRAF^WT [3] is on record as “monomers were stabilized”. For the same compound, the “oligomeric state of BRAF^V600E on adding inhibitor” value on BRAF^V600E is given as “dimers were disrupted”. In addition, at BRAF^WT [2], the “trypsin digestion pattern of BRAF^WT” value was “species A as the major band, with negligible amounts of species B and C”.

Take `N#Cc1c(Oc2ccc(F)c(NC(=O)Cc3cccc(C(F)(F)F)c3)c2)ccc2nc(NC(=O)COCCOCCOCC(=O)Nc3nc4ccc(Oc5ccc(F)c(NC(=O)Cc6cccc(C(F)(F)F)c6)c5)c(C#N)c4s3)sc12` [TAK-2-TAK]: at BRAF^WT [1], the “fold reduced potency relative to TAK632” value was ~12 fold. Further, the “melting temperature of BRAF^WT, higher transition” value at BRAF^WT [4] (75 μM inhibitor) stood at 58.65 °C; on BRAF^WT [4] (125 μM inhibitor), 59.6 °C; at BRAF^WT [4] (250 μM inhibitor) it was 62.64 °C. Further, at BRAF^WT [2], the “trypsin digestion pattern of BRAF^WT” value is “digestion pattern resembling that of unliganded BRAF^WT”.

Regarding `N#Cc1c(Oc2ccc(F)c(NC(=O)Cc3cccc(C(F)(F)F)c3)c2)ccc2nc(NC(=O)COCCOCCOCCOCCOCC(=O)Nc3nc4ccc(Oc5ccc(F)c(NC(=O)Cc6cccc(C(F)(F)F)c6)c5)c(C#N)c4s3)sc12` [TAK-4-TAK], the “fold reduced potency relative to TAK632” value on BRAF^WT [1] is given as ~12 fold.

For the compound `N#Cc1c(Oc2ccc(F)c(NC(=O)Cc3cccc(C(F)(F)F)c3)c2)ccc2nc(NC(=O)C3CC3)sc12` [TAK632, N-{7-Cyano-6-[4-fluoro-3-({[3-(trifluoromethyl)phenyl]acetyl}amino)phenoxy]-1,3-benzothiazol-2-yl}cyclopropanecarboxamide], on BRAF^WT [3], the “oligomeric state of BRAF^WT on adding inhibitor” value is “form dimeric species”. For the same compound, the “oligomeric state of BRAF^V600E on adding inhibitor” value on BRAF^V600E is “form dimeric species”. Further, the “trypsin digestion pattern of BRAF^WT” value on BRAF^WT [2] was “species A becomes a minor band, while species B and C become major bands”. Besides, at BRAF^R506A, the “oligomeric state of BRAF^R506A on adding inhibitor” value is reported as “complete dimerization”. On BRAF^W450A, the “oligomeric state of BRAF^W450A on adding inhibitor” value is on record as “complete dimerization”. Further, the “oligomeric state of BRAF^R509H/R506A/W450A on adding inhibitor” value at BRAF^R509H/R506A/W450A [5] is “sediments less broadly and more closely to that of a monomer peak”. Besides, the molecular weight at BRAF^R509H/R506A/W450A [6] is 47,000 kDa. Besides, the IC50 values entry in experiment [7] is recorded as “low nanomolar range”.
